Experimental data as given in PMC5036617 (Toxicological Sciences, 2016).
Like-named read-outs stand apart in the source and are kept apart here.

How the values were obtained:
HepG2 cells [1] = assay: Cellular ATP content of HepG2 cells in glucose or galactose medium (ATP bioluminescent assay); assay type: cell-based; settings: 2 h; for decrease in ATP content in galactose medium compared with glucose medium: up to 300 µM; for EC50: Homo sapiens, concentration reducing cellular ATP content by 50%; for EC50ATPglu/EC50ATPgal: ratio ≥ 2 identifies a mitochondrial liability
Procedure: Metabolic switching of cells was performed based on work previously described by ([[…] et al., 2015]). Briefly, 24 h prior to metabolic switch, HepG2 cells were collected by trypsinization and seeded on a collagen-coated flat-bottomed 96-well plate (20 000 cells/50 μl/well) and incubated (37°C, 5% CO2) overnight. […] Flutamide, 2-hydroxyflutamide and bicalutamide stock solutions were prepared in DMSO and diluted further in the appropriate medium. Compounds (50 μl) were then added to each well and cells were incubated for 2 h (37 °C, 5% CO2). All assays used ≤ 0.5% DMSO as a vehicle control. […] LDH content of the cells and supernatant was assessed using a cytotoxicity detection kit according to the manufacturer's instructions. ATP content was assessed using an ATP bioluminescent assay according to the manufacturer's instructions. Briefly, 10 μl of cell lysate or ATP standard curve solutions were added to a white-walled 96-well plate before addition of 40 μl ATP assay mix. Protein content of all wells was then assessed using a BCA assay applied to 10 μl of cell lysate and standards. LDH (490 nm), BCA (570 nm), and ATP assay luminescence were then measured using a plate reader (Varioskan, Thermo Scientific). ATP content readings were normalized to protein content. Experiments were conducted in a minimum of triplicate to ensure the reliability of single values. EC50 data were determined by nonlinear regression analysis using GraphPad Prism 5.0. Normality was assessed using a Shapiro-Wilk statistical test. Statistical significance was determined by an unpaired t-test for parametric data and a Mann-Whitney U test for non-parametric data using StatsDirect 2.7.9. P < .05 was taken as showing a significant difference.

androgen receptor = tested on: androgen receptor; design: method as in Shet et al., 1997; settings: metabolite compared with parent compound; ref Shet et al., 1997; cited from earlier work
[2] = tested on: mitochondrial respiratory complex II; assay: In situ respiratory complex assay in permeabilized cells, complex II; assay type: cell-based; settings: uncoupled, permeabilized HepG2 cells, 10–250 µM
HepG2 cells [3] = assay: Assessment of superoxide level (mitoSOX red); assay type: cell-based; settings: 2 h; for concentration significantly increasing cellular superoxide: HepG2 cells, glucose medium, 15–500 µM; for superoxide level in galactose media: acutely galactose-conditioned HepG2 cells, up to 500 µM
Procedure: HepG2 cells were collected by trypsinization and seeded on a 24-well plate (150 000 cells/500 µl/well) and incubated overnight in glucose medium (37°C, 5% CO2). […] Protein content per well was determined using a BCA assay (as described earlier) and was used to normalize superoxide levels.

[4] = ref Chu et al., 1998; Wysowski and Fourcroy, 1996; cited from earlier work
[5] = galactose medium, read-out: EC50ATP (μM) Galactose
[6] = glucose medium, read-out: EC50ATP (μM) Glucose

Row | SMILES | decrease in ATP content in galactose medium compared with glucose medium (HepG2 cells [1]) | EC50 (HepG2 cells [1]; [5]) [µM] | EC50 (HepG2 cells [1]; [6]) [µM] | androgen receptor binding affinity (androgen receptor) | complex II activity (response to succinate) [2] | concentration significantly increasing cellular superoxide (HepG2 cells [3]) [µM] | superoxide level in galactose media (HepG2 cells [3]) | EC50ATPglu/EC50ATPgal (HepG2 cells [1]) | EC50ATPglu/EC50ATPgal (HepG2 cells [1]; listed as flutamide) | cases of hospitalization or death (idiosyncratic DILI) in treated patients [4] [%]
1 | CC(C)(O)C(=O)Nc1ccc([N+](=O)[O-])c(C(F)(F)F)c1 [2-hydroxyflutamide] | significantly more in the galactose medium | 48.5 | 267 | higher androgen receptor binding affinity than its parent compound | significantly reduced response | ≥ 30 | significant increase | – | – | –
2 | CC(C)C(=O)Nc1ccc([N+](=O)[O-])c(C(F)(F)F)c1 [Flutamide] | significantly more in the galactose medium | 43.9 | 255 | – | Only 2-hydroxyflutamide induced a significantly reduced response | ≥ 30 | significant increase | 5.82 (0.03) | ≥ 2 | 0.03
